ChEMBL document CHEMBL6120942 (J Med Chem, 2024)
In brackets after ≈: the same amount, converted by molar mass. Activity calls are given as the source filed them. The calls are words filed in the database; no cut-off is given here.

Key:
[1] = Permeability across apical to basolateral side in MDCK cells; type: ADME, cell-based, Canis lupus familiaris; conditions: dog, read-out: permeability
[2] = AUC in rat at 2 mg/kg, po; type: ADME, organism-based; conditions: in vivo
[3] = physchem; conditions: octanol/water, pH 7.4, logD
Description: (§1) Distribution coefficient, logD of compound at pH 7.4 by HPLC analysis

[4] = Kinetic solubility of compound; type: physicochemical; conditions: read-out: Kinetic_solubility
[5] = Metabolic stability in human microsome assessed as clearance measured upto 60 mins by LC-MS/MS analysis; type: ADME; conditions: microsomes, 1 h
[6] = Unbound clearance in male Wistar Han rat at 1 mg/kg, po or 1 mg/kg, iv measured upto 24 hrs by LC-MS/MS analysis; type: ADME, organism-based; conditions: in vivo
[7] = Half life in male Wistar Han rat at 1 mg/kg, iv measured upto 24 hrs by LC-MS/MS analysis; type: ADME, organism-based; conditions: in vivo
[8] = Volume of distribution at steady state in male Wistar Han rat at 1 mg/kg, po or 1 mg/kg, iv measured upto 24 hrs by LC-MS/MS analysis; type: ADME, organism-based; conditions: in vivo
[9] = Oral bioavailability in male Wistar Han rat at 1 mg/kg measured upto 24 hrs by LC-MS/MS analysis; type: ADME, organism-based; conditions: in vivo
[10] = Unbound clearance in Gottingen minipig at 1 mg/kg, po or 1 mg/kg, iv measured upto 24 hrs by LC-MS/MS analysis; type: ADME, organism-based, Sus scrofa; conditions: pig, in vivo
[11] = Half life in Gottingen minipig at 1 mg/kg, iv measured upto 24 hrs by LC-MS/MS analysis; type: ADME, organism-based, Sus scrofa; conditions: pig, in vivo
[12] = Volume of distribution at steady state in Gottingen minipig at 1 mg/kg, po or 1 mg/kg, iv measured upto 24 hrs by LC-MS/MS analysis; type: ADME, organism-based, Sus scrofa; conditions: pig, in vivo
[13] = Oral bioavailability in Gottingen minipig at 1 mg/kg measured upto 24 hrs by LC-MS/MS analysis; type: ADME, organism-based, Sus scrofa; conditions: pig, in vivo
[14] = in vitro; conditions: dog, MDCK-MDR1, permeability
Description: (§2) Permeability across apical to basolateral side in dog MDCK-MDR1 cells measured for 60 mins by LC-MS/MS analysis

[15] = molecular target: Integrin alpha-V/beta-6 (Homo sapiens, UniProt P06756+P18564); assay: Binding affinity to Integrin alphaVbeta6 (unknown origin); type: protein-complex assay
Sequence of Integrin alpha-V/beta-6 (P06756 31-889 limits assumed): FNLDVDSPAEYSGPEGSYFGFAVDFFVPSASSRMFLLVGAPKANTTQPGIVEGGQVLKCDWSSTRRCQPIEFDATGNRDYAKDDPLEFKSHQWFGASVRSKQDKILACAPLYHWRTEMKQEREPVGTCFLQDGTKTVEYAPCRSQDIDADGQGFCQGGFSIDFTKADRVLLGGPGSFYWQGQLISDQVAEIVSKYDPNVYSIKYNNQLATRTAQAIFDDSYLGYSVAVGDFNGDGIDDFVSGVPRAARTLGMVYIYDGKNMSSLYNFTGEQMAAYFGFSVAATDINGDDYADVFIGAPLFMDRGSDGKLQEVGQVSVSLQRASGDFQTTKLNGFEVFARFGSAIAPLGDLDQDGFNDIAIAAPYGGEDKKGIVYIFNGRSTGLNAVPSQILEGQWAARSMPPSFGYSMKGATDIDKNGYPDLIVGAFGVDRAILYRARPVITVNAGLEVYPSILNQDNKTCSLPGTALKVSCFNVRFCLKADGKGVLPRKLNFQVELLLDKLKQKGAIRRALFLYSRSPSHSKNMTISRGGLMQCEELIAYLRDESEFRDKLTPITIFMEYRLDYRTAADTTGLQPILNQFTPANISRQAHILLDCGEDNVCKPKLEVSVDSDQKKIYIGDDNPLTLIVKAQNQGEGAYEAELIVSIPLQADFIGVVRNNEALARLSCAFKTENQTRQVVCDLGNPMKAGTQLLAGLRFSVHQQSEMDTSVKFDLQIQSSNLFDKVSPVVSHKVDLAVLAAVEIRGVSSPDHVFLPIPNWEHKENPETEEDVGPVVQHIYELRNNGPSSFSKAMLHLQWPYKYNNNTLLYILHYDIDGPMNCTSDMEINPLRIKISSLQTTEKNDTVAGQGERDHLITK
Sequence of Integrin alpha-V/beta-6 (P06756 891-1048 limits assumed): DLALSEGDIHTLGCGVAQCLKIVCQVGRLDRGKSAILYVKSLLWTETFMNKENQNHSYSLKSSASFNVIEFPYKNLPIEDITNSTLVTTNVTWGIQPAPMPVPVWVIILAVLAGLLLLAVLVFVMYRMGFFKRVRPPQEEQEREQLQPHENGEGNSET
Sequence of Integrin alpha-V/beta-6 (P18564 22-788 limits assumed): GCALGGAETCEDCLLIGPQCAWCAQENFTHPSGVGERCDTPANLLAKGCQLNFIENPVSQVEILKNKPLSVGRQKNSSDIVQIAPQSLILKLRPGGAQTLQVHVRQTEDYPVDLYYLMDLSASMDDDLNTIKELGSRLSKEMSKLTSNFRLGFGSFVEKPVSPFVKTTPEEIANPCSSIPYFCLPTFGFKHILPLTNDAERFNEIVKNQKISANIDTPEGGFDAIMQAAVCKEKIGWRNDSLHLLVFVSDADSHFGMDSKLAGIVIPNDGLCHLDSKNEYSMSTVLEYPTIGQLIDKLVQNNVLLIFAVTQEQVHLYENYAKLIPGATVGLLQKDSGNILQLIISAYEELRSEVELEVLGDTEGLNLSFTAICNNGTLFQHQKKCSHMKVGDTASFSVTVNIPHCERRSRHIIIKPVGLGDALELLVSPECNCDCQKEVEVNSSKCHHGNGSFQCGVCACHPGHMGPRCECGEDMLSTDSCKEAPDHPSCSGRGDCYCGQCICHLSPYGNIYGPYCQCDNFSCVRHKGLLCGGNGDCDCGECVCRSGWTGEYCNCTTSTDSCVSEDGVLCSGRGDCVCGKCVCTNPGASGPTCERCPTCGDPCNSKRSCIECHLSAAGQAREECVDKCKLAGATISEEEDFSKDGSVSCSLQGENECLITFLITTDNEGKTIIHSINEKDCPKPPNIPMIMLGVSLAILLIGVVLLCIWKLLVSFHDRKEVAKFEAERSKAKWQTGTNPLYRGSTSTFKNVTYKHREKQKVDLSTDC

[16] = octanol/water, pH 7.4
Description: as §1

[17] = dog, mdck-mdr1, 1 h
Description: as §2

[18] = Volume of distribution at steady state in male Wistar Han rat at 2 mg/kg, po measured upto 24 hrs by LC-MS/MS analysis; type: ADME, organism-based; conditions: in vivo
[19] = Oral bioavailability in male Wistar Han rat at 2 mg/kg measured upto 24 hrs by LC-MS/MS analysis; type: ADME, organism-based; conditions: in vivo
[20] = Volume of distribution at steady state in male Beagle dog at 1 mg/kg, po or 1 mg/kg, iv measured upto 24 hrs by LC-MS/MS analysis; type: ADME, organism-based, Canis lupus familiaris; conditions: in vivo
[21] = Oral bioavailability in male Beagle dog at 1 mg/kg measured upto 24 hrs by LC-MS/MS analysis; type: ADME, organism-based, Canis lupus familiaris; conditions: in vivo
[22] = test system: Mus musculus; assay: Antifibrotic activity against bleomycin-induced mouse model of pulmonary fibrosis at 2 to 10 mg/kg, po; type: functional, organism-based; conditions: dose 2-10 mg/kg
[23] = test system: Mus musculus; assay: Antifibrotic activity against bleomycin-induced mouse model of pulmonary fibrosis at 2 to 15 mg/kg, po; type: functional, organism-based; conditions: dose 2-15 mg/kg
[24] = molecular target: T1, Voltage-gated inwardly rectifying potassium channel KCNH2 (Homo sapiens, UniProt Q12809); assay: Inhibition of hERG by patch clamp assay; type: toxicity
T1 sequence (Q12809 whole entry): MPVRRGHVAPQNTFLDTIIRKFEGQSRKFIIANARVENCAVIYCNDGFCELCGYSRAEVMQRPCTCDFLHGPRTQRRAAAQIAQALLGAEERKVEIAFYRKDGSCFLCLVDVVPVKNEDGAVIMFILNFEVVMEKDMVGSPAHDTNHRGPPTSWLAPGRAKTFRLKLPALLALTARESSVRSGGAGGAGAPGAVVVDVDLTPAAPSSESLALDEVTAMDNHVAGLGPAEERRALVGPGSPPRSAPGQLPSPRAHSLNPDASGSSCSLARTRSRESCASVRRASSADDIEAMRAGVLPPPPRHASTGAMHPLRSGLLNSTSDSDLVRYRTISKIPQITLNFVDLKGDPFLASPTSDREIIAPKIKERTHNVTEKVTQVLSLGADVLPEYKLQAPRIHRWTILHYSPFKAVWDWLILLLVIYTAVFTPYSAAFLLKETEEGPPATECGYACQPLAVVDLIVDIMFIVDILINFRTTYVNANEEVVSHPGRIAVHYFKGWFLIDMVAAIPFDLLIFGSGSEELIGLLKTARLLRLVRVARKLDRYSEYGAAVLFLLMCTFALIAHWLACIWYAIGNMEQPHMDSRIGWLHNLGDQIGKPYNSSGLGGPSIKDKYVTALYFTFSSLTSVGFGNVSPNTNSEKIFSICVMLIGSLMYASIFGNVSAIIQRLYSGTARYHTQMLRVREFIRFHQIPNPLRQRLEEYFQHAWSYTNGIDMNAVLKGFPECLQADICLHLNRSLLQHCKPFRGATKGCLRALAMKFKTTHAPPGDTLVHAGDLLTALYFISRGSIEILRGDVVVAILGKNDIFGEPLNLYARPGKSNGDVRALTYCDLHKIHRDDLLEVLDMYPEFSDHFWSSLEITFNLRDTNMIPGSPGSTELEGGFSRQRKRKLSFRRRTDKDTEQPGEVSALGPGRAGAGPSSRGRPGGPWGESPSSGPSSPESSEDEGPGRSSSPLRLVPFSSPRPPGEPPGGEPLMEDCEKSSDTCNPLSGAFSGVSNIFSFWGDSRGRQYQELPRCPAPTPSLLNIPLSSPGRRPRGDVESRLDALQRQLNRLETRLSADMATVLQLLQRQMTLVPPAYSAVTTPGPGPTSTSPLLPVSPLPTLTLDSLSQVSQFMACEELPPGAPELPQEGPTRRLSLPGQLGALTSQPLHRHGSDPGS

[25] = molecular target: T1, Voltage-gated inwardly rectifying potassium channel KCNH2; assay: Inhibition of hERG by Qpatch clamp assay; type: toxicity
[26] = molecular target: Integrin alpha-V/beta-5 (Homo sapiens, UniProt P06756+P18084); assay: Binding affinity to Integrin alphaVbeta5 (unknown origin); type: protein-complex assay
[27] = molecular target: Integrin alpha-V/beta-8 (Homo sapiens, UniProt P06756+P26012); assay: Binding affinity to Integrin alphaVbeta8 (unknown origin); type: protein-complex assay
Sequence of Integrin alpha-V/beta-8 (P06756 31-889 limits assumed): as the sequence (P06756 31-889 limits assumed) above
Sequence of Integrin alpha-V/beta-8 (P06756 891-1048 limits assumed): as the sequence (P06756 891-1048 limits assumed) above
Sequence of Integrin alpha-V/beta-8 (P26012 43-769 limits assumed): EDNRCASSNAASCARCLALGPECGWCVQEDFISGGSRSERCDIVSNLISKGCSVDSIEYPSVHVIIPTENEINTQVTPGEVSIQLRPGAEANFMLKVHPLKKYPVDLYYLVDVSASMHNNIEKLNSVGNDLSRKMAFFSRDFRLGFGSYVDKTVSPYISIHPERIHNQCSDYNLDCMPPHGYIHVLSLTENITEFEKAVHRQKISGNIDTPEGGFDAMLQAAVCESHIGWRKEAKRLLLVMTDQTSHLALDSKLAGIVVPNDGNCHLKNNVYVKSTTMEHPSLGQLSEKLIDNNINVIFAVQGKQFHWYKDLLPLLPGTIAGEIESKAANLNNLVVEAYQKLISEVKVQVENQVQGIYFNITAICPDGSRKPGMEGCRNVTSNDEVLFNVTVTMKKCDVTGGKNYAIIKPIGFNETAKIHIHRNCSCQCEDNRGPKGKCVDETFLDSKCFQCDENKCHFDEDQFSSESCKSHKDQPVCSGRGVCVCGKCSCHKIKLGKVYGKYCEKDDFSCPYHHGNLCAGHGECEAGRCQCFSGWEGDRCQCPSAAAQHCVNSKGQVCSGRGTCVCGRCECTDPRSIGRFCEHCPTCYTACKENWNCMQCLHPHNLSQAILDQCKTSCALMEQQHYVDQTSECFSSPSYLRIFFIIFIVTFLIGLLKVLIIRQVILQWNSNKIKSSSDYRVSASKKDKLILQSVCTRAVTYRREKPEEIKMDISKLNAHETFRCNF

[28] = Metabolic stability in human Hepatocyte assessed as clearance measured upto 60 mins by LC-MS/MS analysis; type: ADME, cell-based; conditions: hepatocytes, 1 h
[29] = Metabolic stability in Wistar rat liver Microsome assessed as clearance measured upto 60 mins by LC-MS/MS analysis; type: ADME; conditions: microsomes, 1 h
[30] = Metabolic stability in Wistar rat Hepatocyte assessed as clearance measured upto 60 mins by LC-MS/MS analysis; type: ADME, cell-based; conditions: hepatocytes, 1 h
[31] = Unbound clearance in male Beagle dog at 1 mg/kg, po or 1 mg/kg, iv measured upto 24 hrs by LC-MS/MS analysis; type: ADME, organism-based, Canis lupus familiaris; conditions: in vivo
[32] = Half life in male Beagle dog at 1 mg/kg, iv measured upto 24 hrs by LC-MS/MS analysis; type: ADME, organism-based, Canis lupus familiaris; conditions: in vivo
[33] = molecular target: Integrin alpha-V/beta-3 (Homo sapiens, UniProt P05106+P06756); assay: Binding affinity to Integrin alphaVbeta3 (unknown origin); type: protein-complex assay
Sequence of Integrin alpha-V/beta-3 (P05106 27-788 limits assumed): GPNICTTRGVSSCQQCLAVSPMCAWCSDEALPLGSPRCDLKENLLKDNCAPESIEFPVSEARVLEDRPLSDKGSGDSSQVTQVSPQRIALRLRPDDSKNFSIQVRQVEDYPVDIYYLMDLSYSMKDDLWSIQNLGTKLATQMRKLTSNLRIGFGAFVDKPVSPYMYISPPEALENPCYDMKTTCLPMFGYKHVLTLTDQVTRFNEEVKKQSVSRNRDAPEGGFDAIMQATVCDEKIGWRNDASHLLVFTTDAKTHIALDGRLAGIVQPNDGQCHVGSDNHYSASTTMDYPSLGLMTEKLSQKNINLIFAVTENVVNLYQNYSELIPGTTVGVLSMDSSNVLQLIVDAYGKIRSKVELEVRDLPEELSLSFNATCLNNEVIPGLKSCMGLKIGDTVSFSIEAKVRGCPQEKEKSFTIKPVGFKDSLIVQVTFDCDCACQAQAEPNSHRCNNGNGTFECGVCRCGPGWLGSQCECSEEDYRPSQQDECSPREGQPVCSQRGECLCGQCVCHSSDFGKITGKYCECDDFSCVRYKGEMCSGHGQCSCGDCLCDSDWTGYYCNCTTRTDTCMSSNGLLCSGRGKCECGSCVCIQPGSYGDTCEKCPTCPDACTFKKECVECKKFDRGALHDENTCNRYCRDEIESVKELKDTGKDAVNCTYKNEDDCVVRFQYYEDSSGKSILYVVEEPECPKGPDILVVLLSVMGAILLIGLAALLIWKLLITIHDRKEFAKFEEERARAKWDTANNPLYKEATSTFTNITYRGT
Sequence of Integrin alpha-V/beta-3 (P06756 31-889 limits assumed): as the sequence (P06756 31-889 limits assumed) above
Sequence of Integrin alpha-V/beta-3 (P06756 891-1048 limits assumed): as the sequence (P06756 891-1048 limits assumed) above

[34] = molecular target: Integrin alpha-V/beta-1 (Homo sapiens, UniProt P05556+P06756); assay: Binding affinity to Integrin alphaVbeta1 (unknown origin); type: protein-complex assay

Compound COCCOc1cccc([C@H](CC(=O)O)CN2CC[C@](F)(CCc3ccc4c(n3)NCCC4)C2)c1 has a Papp A→B [1] of 1.9 ×10⁻⁶ cm/s, an AUC [2] of 101 ng·h/mL and a logD [3] of 2.89.

With O=C(O)C[C@H](CN1CC[C@@](F)(CCc2ccc3c(n2)NCCC3)C1)c1cccc(O[C@H]2CCOC2)c1 the solubility kinetic [4] was 194 µg/mL (≈ 390 µM), the Papp A→B [1] was 7.6 ×10⁻⁶ cm/s and the CLH [5] was < 0.4 mL/min/g. The CL free [6] was 58 mL/min/kg, the half-life [7] was 168 min and the Vdss [8] was 1.9 L/kg. For the same compound, the bioavailability [9] was 61%, the CL free [10] was 26 mL/min/kg and the half-life [11] was 204 min. The Vdss [12] was 1.4 L/kg, the bioavailability [13] was 63% and the logD [3] was 2.84. The Papp A→B at 1 h [14] was 26 ×10⁻⁶ cm/s.

Work on O=C(O)C[C@H](CN1CC(CCc2ccc3c(n2)NCCC3)CC(F)(F)C1)c1cccc(N2CCOCC2)c1 (stereo in doubt; 3b) yielded an IC50 [15] of 79.4 nM, a logD [16] of 4.33 and a permeability [17] of 560 nm/s.

COCCOc1cccc([C@H](CC(=O)O)CN2CC[C@@](F)(CCc3ccc4c(n3)NCCC4)C2)c1 gave a solubility kinetic [4] of 127 µg/mL (≈ 262 µM), a Papp A→B [1] of 8.7 ×10⁻⁶ cm/s and a Vdss [18] of 3.6 L/kg. It also gave a bioavailability [19] of 93%, a Vdss [20] of 1.4 L/kg and a bioavailability [21] of 104%. The Vdss [12] was 0.9 L/kg, the bioavailability [13] was 84% and the AUC [2] was 779 ng·h/mL. The Activity [22] was “Active”, the Activity [23] was “Active” and the logD [3] was 2.93. For the same compound, the Papp A→B at 1 h [14] was 14.6 ×10⁻⁶ cm/s.

O=C(O)C[C@H](CN1CCCC(F)(CCc2ccc3c(n2)NCCC3)C1)c1cccc(N2CCOCC2)c1 (stereo in doubt; 4a) gave an IC50 [15] of 50.1 nM, a logD [3] of 2.68 and a Papp A→B at 1 h [14] of 21.6 ×10⁻⁶ cm/s.

Compound O=C(O)C[C@H](CN1CC[C@@H](CCc2ccc3c(n2)NCCC3)C1)c1cccc(N2CCOCC2)c1 has a logD [3] of 2.27 and a Papp A→B at 1 h [14] of 2.7 ×10⁻⁶ cm/s.

In the case of O=C(O)C[C@H](CN1CC[C@](F)(CCc2ccc3c(n2)NCCC3)C1)c1cccc(N2CCOCC2)c1, the IC50 [24] is reported as > 10 µM, the IC50 [25] is reported as > 10 µM and the logD [3] is reported as 2.66. The Papp A→B at 1 h [14] was 9.3 ×10⁻⁶ cm/s.

With O=C(O)C[C@H](CN1CC[C@@](F)(CCc2ccc3c(n2)NCCC3)C1)c1cccc(OC2CCOCC2)c1 the IC50 [26] was 31.6 nM, the IC50 [27] was 12.6 nM and the solubility kinetic [4] was 209 µg/mL (≈ 408 µM). For the same compound, the Papp A→B [1] was 12.1 ×10⁻⁶ cm/s, the CLH [5] was < 0.4 mL/min/g and the CLH [28] was < 0.21 mL/min/g. For the same compound, the CLH [29] was < 0.46 mL/min/g, the CLH [30] was 1.6 mL/min/g and the CL free [6] was 182 mL/min/kg. The half-life [7] was 210 min, the Vdss [8] was 4.9 L/kg and the bioavailability [9] was 50%. For the same compound, the logD [3] was 3.18 and the Papp A→B at 1 h [14] was 17.2 ×10⁻⁶ cm/s.

In the case of Cc1cc(C)n(-c2cccc([C@H](CC(=O)O)CN3CC[C@@H](CCc4ccc5c(n4)NCCC5)C3)c2)n1.Cl [GSK-3008348], the CL free [31] is reported as 124 mL/min/kg, the CL free [6] is reported as 189 mL/min/kg and the half-life [7] is reported as 48 min. For the same compound, the Vdss [8] was 2.1 L/kg, the bioavailability [9] was < 2% and the half-life [32] was 216 min. For the same compound, the Vdss [20] was 3.6 L/kg and the bioavailability [21] was 30%.

Compound Cc1cc(C)n(-c2cccc([C@H](CC(=O)O)CN3CC[C@@](F)(CCc4ccc5c(n4)NCCC5)C3)c2)n1 has an IC50 [15] of 10 nM, an IC50 [33] of 316 nM and an IC50 [26] of 200 nM. The IC50 [27] was 20 nM, the solubility kinetic [4] was 262 µg/mL (≈ 518 µM) and the Papp A→B [1] was 17.7 ×10⁻⁶ cm/s. For the same compound, the CLH [5] was < 0.53 mL/min/g, the CLH [28] was < 0.86 mL/min/g and the CLH [29] was 0.91 mL/min/g. It also gave a CLH [30] of 13.75 mL/min/g, a logD [3] of 3.3 and a Papp A→B at 1 h [14] of 33 ×10⁻⁶ cm/s.

Work on O=C(O)C[C@H](CN1CCC(F)(F)C(CCc2ccc3c(n2)NCCC3)C1)c1cccc(N2CCOCC2)c1 (stereo in doubt; 2a) yielded an IC50 [15] of 2000 nM, a logD [3] of 4.02 and a Papp A→B at 1 h [14] of 37 ×10⁻⁶ cm/s.

For O=C(O)C[C@H](CN1CC[C@@](F)(CCc2ccc3c(n2)NCCC3)C1)c1cccc(O[C@@H]2CCOC2)c1, the IC50 [34] was 158 nM, the IC50 [33] was 63.1 nM and the solubility kinetic [4] was 232 µg/mL (≈ 466 µM). For the same compound, the Papp A→B [1] was 7.8 ×10⁻⁶ cm/s, the CLH [5] was < 0.4 mL/min/g and the CLH [28] was < 0.21 mL/min/g. The CLH [29] was < 0.46 mL/min/g, the CLH [30] was 1.4 mL/min/g and the CL free [6] was 88 mL/min/kg. For the same compound, the half-life [7] was 186 min, the Vdss [8] was 3.3 L/kg and the bioavailability [9] was 90%. For the same compound, the CL free [10] was 34 mL/min/kg, the half-life [11] was 102 min and the Vdss [12] was 1.5 L/kg. The bioavailability [13] was 66%, the logD [3] was 2.76 and the Papp A→B at 1 h [14] was 20.5 ×10⁻⁶ cm/s.

With O=C(O)C[C@H](CN1CCCC(F)(CCc2ccc3c(n2)NCCC3)C1)c1cccc(N2CCOCC2)c1 (stereo in doubt; 4b) the IC50 [15] was 200 nM and the permeability [17] was 380 nm/s.

Compound O=C(O)C[C@H](CN1CC(CCc2ccc3c(n2)NCCC3)CC(F)(F)C1)c1cccc(N2CCOCC2)c1 (stereo in doubt; 3a) has an IC50 [15] of 631 nM, a logD [3] of 3.46 and a Papp A→B at 1 h [14] of 36 ×10⁻⁶ cm/s.

For O=C(O)C[C@H](CN1CC[C@@](F)(CCc2ccc3c(n2)NCCC3)C1)c1cccc(N2CCOCC2)c1, the CL free [31] was 18 mL/min/kg, the IC50 [24] was > 10 µM and the IC50 [25] was > 10 µM. For the same compound, the solubility kinetic [4] was 258 µg/mL (≈ 520 µM), the Papp A→B [1] was 8.7 ×10⁻⁶ cm/s and the CLH [5] was < 0.46 mL/min/g. For the same compound, the CLH [28] was < 0.62 mL/min/g, the CLH [29] was < 0.49 mL/min/g and the CLH [30] was < 1.04 mL/min/g. The CL free [6] was 206 mL/min/kg, the half-life [7] was 114 min and the Vdss [8] was 4.1 L/kg. For the same compound, the bioavailability [9] was 77%, the half-life [32] was 366 min and the Vdss [20] was 2.5 L/kg. The bioavailability [21] was 74%, the CL free [10] was 58 mL/min/kg and the half-life [11] was 180 min. For the same compound, the Vdss [12] was 2.5 L/kg, the bioavailability [13] was 34% and the logD [3] was 2.68. It also gave a Papp A→B at 1 h [14] of 21.8 ×10⁻⁶ cm/s.

O=C(O)C[C@H](CN1CCC(F)(F)C(CCc2ccc3c(n2)NCCC3)C1)c1cccc(N2CCOCC2)c1 (stereo in doubt; 2b) showed an IC50 [15] of 501 nM, a logD [16] of 4.62 and a permeability [17] of 560 nm/s.
